Assay results as given in patent EP4682156A1, “LINKER AND DRUG CONJUGATE USING SAME, AND ANTIBODY-DRUG CONJUGATE AND USE THEREOF” (Shanghai Affinity Biopharmaceutical Co., Ltd., priority 2023, dated 2024).
Like-named read-outs stand apart in the source and are kept apart here. *1 amine or outer side, *2 acyl side, *3 side chain or, on linkers, in order; H or OH if unused. Where a SMILES comes first, the peptide text is derived from it. [ ]: non-standard residue; d: D form. The star is where a group is joined. Doxorubicin(3'-N) = COc1cccc2c1C(=O)c1c(O)c3c(c(O)c1C2=O)C[C@@](O)(C(=O)CO)C[C@@H]3O[C@H]1C[C@H](N*)[C@H](O)[C@H](C)O1; Exatecan = CC[C@@]1(O)C(=O)OCc2c1cc1n(c2=O)Cc2c-1nc1cc(F)c(C)c3c1c2[C@@H](N*)CC3; X8 = CCc1c2c(nc3ccc(O)cc13)-c1cc3c(c(=O)n1C2)COC(=O)[C@@]3(CC)OCN*; X5 = CCc1c2c(nc3ccc(OCN*)cc13)-c1cc3c(c(=O)n1C2)COC(=O)[C@]3(O)CC; X1 = O=C(CCCCCOC1O[C@H](CO)[C@H](O)[C@H](O)[C@H]1N[*:1])[*:2]; X9 = Nc1ccn([C@@H]2O[C@H](COCN*)[C@@H](O)C2(F)F)c(=O)n1; Dolaproine = CO[C@@H]([C@@H]1CCCN1)[C@@H](C)C(=O)O; Hexanoyl(6-maleimido) = O=C1C=CC(=O)N1CCCCCC(=O)*; Dil = CC[C@H](C)[C@H](NC)[C@@H](CC(=O)O)OC; X4 = CCCCc1nc2c(N)nc3ccccc3c2n1CCCCN*; X7 = O=C(OC1[C@H]2CCC#CCC[C@@H]12)*; DBCO = C1#Cc2ccccc2N(*)Cc2ccccc21; NHCH2OCH2CO = O=C(COCN[*:1])[*:2]; X3 = C[C@@H](N*)[C@@H](O)c1ccccc1; X6 = O=C1C=C(Br)C(=O)N1CCC(=O)*; X2 = COCCOCCOCCOCCOCCOCC(=O)*; Suc = O=C(CCC(=O)[*:2])[*:1]; NMeV = CN[C@H](C(=O)O)C(C)C; PEG3 = NCCOCCOCCOCCC(=O)O; GABA = NCCCC(=O)O

What was measured:
[1] = molecular target: cathepsin L (Homo sapiens, UniProt P07711); assay: Enzymatic cleavage by cathepsin L, released DXD quantified by HPLC; format: biochemical; parameters: Enzymatic cleavage efficiency %: concentration or dose not given beside the values
Sequence of cathepsin L (P07711 114-333): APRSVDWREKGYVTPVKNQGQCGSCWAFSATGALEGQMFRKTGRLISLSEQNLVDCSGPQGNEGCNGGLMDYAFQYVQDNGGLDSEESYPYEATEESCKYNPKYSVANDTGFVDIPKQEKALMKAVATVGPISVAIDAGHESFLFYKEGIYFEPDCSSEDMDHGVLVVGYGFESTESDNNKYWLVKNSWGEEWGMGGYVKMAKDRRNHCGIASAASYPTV

[2] = human
[3] = Stability in human plasma; conditions: within 20 hours
[4] = system: Human Fibrosarcoma; parameters: species or system Nude mice; conditions: mouse, in vivo

CC[C@@]1(O)C(=O)OCc2c1cc1n(c2=O)Cc2c-1nc1cc(F)c(C)c3c1c2[C@@H](NC(=O)COCNC(=O)[C@@H](N)CC(C)C)CC3 [L-AM-DXD, Leu-AM-DXd, reference compound]
DXD produced, share of the reaction substrate (enzymatic cleavage activation efficiency) ([1]; pH 6): 1.45%

COc1cccc2c1C(=O)c1c(O)c3c(c(O)c1C2=O)C[C@@](O)(C(=O)CO)C[C@@H]3O[C@H]1C[C@H](NC(=O)[C@H](CC(C)C)NC(=O)[C@H](Cc2ccccc2)NC(=O)CNC(=O)CNC(=O)CCCCCN2C(=O)C=CC2=O)[C@H](O)[C@H](C)O1 [S1] ({Hexanoyl(6-maleimido)}-GGFL-{Doxorubicin(3'-N)})
Generated load % [2]: 0.0% | Substrate content % [2]: 100% | Enzymatic cleavage efficiency % [1]: 90.5%

CC[C@@]1(O)C(=O)OCc2c1cc1n(c2=O)Cc2c-1nc1cc(F)c(C)c3c1c2[C@@H](NC(=O)[C@H](CC(C)C)NC(=O)[C@H](Cc1ccccc1)NC(=O)CNC(=O)CNC(=O)CCCCCN1C(=O)C=CC1=O)CC3 [S2] ({Hexanoyl(6-maleimido)}-GGFL-Exatecan)
Substrate content % [3]: 100% | Enzymatic cleavage efficiency % [1]: 91.1%

CCCCc1nc2c(N)nc3ccccc3c2n1CCCCNC(=O)[C@H](CC(C)C)NC(=O)[C@H](Cc1ccccc1)NC(=O)CNC(=O)CNC(=O)CCCCCN1C(=O)C=CC1=O [S3] ({Hexanoyl(6-maleimido)}-GGFL-X4)
Substrate content % [3]: 100% | Enzymatic cleavage efficiency % ([1]; cathepsin L, within 20 h): 91.0%

CC[C@H](C)[C@@H]([C@@H](CC(=O)N1CCC[C@H]1[C@H](OC)[C@@H](C)C(=O)N[C@H](C)[C@@H](O)c1ccccc1)OC)N(C)C(=O)[C@@H](NC(=O)[C@H](C(C)C)N(C)C(=O)[C@H](CC(C)C)NC(=O)[C@H](Cc1ccccc1)NC(=O)CNC(=O)CNC(=O)CCCCCN1C(=O)C=CC1=O)C(C)C [S5] ({Hexanoyl(6-maleimido)}-GGFL[NMeV]V[Dil][Dolaproine]-X3)
Enzymatic cleavage efficiency % [1]: 93.1%

CC[C@@]1(O)C(=O)OCc2c1cc1n(c2=O)Cc2c-1nc1cc(F)c(C)c3c1c2[C@@H](NC(=O)COCNC(=O)[C@H](CC(C)C)NC(=O)[C@H](Cc1ccccc1)NC(=O)CNC(=O)CNC(=O)CCCCCN1C(=O)C=CC1=O)CC3 [S6] ({Hexanoyl(6-maleimido)}-GGFL[NHCH2OCH2CO]-Exatecan)
Generated load % [3]: 2.0% | Substrate content % [3]: 98.0% | Enzymatic cleavage efficiency % [1]: 98.0%

CC[C@@]1(O)C(=O)OCc2c1cc1n(c2=O)Cc2c-1nc1cc(F)c(C)c3c1c2[C@@H](NC(=O)COCNC(=O)[C@H](CC(C)C)NC(=O)[C@H](Cc1ccccc1)NC(=O)CNC(=O)CNC(=O)[C@H](CCCCNC(=O)COCCOCCOCCOCCOCCOC)NC(=O)CCCCCN1C(=O)C=CC1=O)CC3 [S8] ({Hexanoyl(6-maleimido)}-K(X2)GGFL[NHCH2OCH2CO]-Exatecan)
Substrate content % [3]: 98.0% | Anti-tumor rate% Day 20 [4]: 98% | Tumor volume(mm^3) Day 20 [4]: 15 mm^3 | treatment efficacy compared with DXd [4]: significantly improved treatment efficacy | Enzymatic cleavage efficiency % [1]: 98.0%

CCc1c2c(nc3ccc(OCNC(=O)[C@H](CC(C)C)NC(=O)[C@H](Cc4ccccc4)NC(=O)CNC(=O)CNC(=O)CCCCCN4C(=O)C=CC4=O)cc13)-c1cc3c(c(=O)n1C2)COC(=O)[C@]3(O)CC [S14] ({Hexanoyl(6-maleimido)}-GGFL-X5)
Substrate content % [3]: 98.0% | Enzymatic cleavage efficiency % [1]: 98.0%

CCc1c2c(nc3ccc(O)cc13)-c1cc3c(c(=O)n1C2)COC(=O)[C@@]3(CC)OCNC(=O)[C@H](CC(C)C)NC(=O)[C@H](Cc1ccccc1)NC(=O)CNC(=O)CNC(=O)CCCCCN1C(=O)C=CC1=O [S15] ({Hexanoyl(6-maleimido)}-GGFL-X8)
Enzymatic cleavage efficiency % [1]: 95.1%

CC(C)C[C@H](NC(=O)[C@H](Cc1ccccc1)NC(=O)CNC(=O)CNC(=O)CCCCCN1C(=O)C=CC1=O)C(=O)NCOC[C@H]1O[C@@H](n2ccc(N)nc2=O)C(F)(F)[C@@H]1O [S16] ({Hexanoyl(6-maleimido)}-GGFL-X9)
Enzymatic cleavage efficiency % [1]: 92.3%

CC[C@@]1(O)C(=O)OCc2c1cc1n(c2=O)Cc2c-1nc1cc(F)c(C)c3c1c2[C@@H](NC(=O)COCNC(=O)[C@H](CC(C)C)NC(=O)[C@H](Cc1ccccc1)NC(=O)CNC(=O)CNC(=O)CCCCCOC1O[C@H](CO)[C@H](O)[C@H](O)[C@H]1NC(C)=O)CC3 (stereo partly shown) [S18] (Ac-[X1]GGFL[NHCH2OCH2CO]-Exatecan)
Substrate content % [3]: 98.2% | Anti-tumor rate% Day 20 [4]: 95% | Tumor volume(mm^3) Day 20 [4]: 40 mm^3 | treatment efficacy compared with DXd [4]: significantly improved treatment efficacy | Enzymatic cleavage efficiency % [1]: 98.3%

CC[C@@]1(O)C(=O)OCc2c1cc1n(c2=O)Cc2c-1nc1cc(F)c(C)c3c1c2[C@@H](NC(=O)[C@H](CC(C)C)NC(=O)[C@H](Cc1ccccc1)NC(=O)CNC(=O)CNC(=O)CCN1C(=O)C=C(Br)C1=O)CC3 [S26] (X6-GGFL-Exatecan)
Substrate content % [3]: 100% | Enzymatic cleavage efficiency % [1]: 95.1%

CCCCc1nc2c(N)nc3ccccc3c2n1CCCCNC(=O)[C@H](CC(C)C)NC(=O)[C@H](Cc1ccccc1)NC(=O)CNC(=O)CNC(=O)CCOCCOCCOCCNC(=O)OC1[C@H]2CCC#CCC[C@@H]12 (stereo partly shown) [S27]
Substrate content % [3]: 100% | Enzymatic cleavage efficiency % ([1]; cathepsin L, within 20 h): 94.5%

CC[C@@]1(O)C(=O)OCc2c1cc1n(c2=O)Cc2c-1nc1cc(F)c(C)c3c1c2[C@@H](NC(=O)CCCNC(=O)[C@H](CC(C)C)NC(=O)[C@H](Cc1ccccc1)NC(=O)CNC(=O)CNC(=O)CCOCCOCCOCCNC(=O)OC1[C@H]2CCC#CCC[C@@H]12)CC3 (stereo partly shown) [S28] ({X7-PEG3}-GGFL[GABA]-Exatecan)
Substrate content % [3]: 100% | Enzymatic cleavage efficiency % [1]: 95.1%

CCCCc1nc2c(N)nc3ccccc3c2n1CCCCNC(=O)[C@H](CC(C)C)NC(=O)[C@H](Cc1ccccc1)NC(=O)CNC(=O)CNC(=O)CCOCCOCCOCCNC(=O)CCC(=O)N1Cc2ccccc2C#Cc2ccccc21 [S31] ({DBCO-Suc-PEG3}-GGFL-X4)
Enzymatic cleavage efficiency % [1]: 97.5%

CC[C@@]1(O)C(=O)OCc2c1cc1n(c2=O)Cc2c-1nc1cc(F)c(C)c3c1c2[C@@H](NC(=O)CCCNC(=O)[C@H](CC(C)C)NC(=O)[C@H](Cc1ccccc1)NC(=O)CNC(=O)CNC(=O)CCOCCOCCOCCNC(=O)CCC(=O)N1Cc2ccccc2C#Cc2ccccc21)CC3 [S32] ({DBCO-Suc-PEG3}-GGFL[GABA]-Exatecan)
Substrate content % [3]: 100% | Enzymatic cleavage efficiency % [1]: 98.0%

CC[C@@]1(O)C(=O)OCc2c1cc1n(c2=O)Cc2c-1nc1cc(F)c(C)c3c1c2[C@@H](NC(=O)COCNC(=O)[C@H](CC(C)C)NC(=O)[C@H](Cc1ccccc1)NC(=O)CNC(=O)CNC(=O)CCOCCOCCOCCNC(=O)CCC(=O)N1Cc2ccccc2C#Cc2ccccc21)CC3 [S34] ({DBCO-Suc-PEG3}-GGFL[NHCH2OCH2CO]-Exatecan)
Substrate content % [3]: 98.3% | Enzymatic cleavage efficiency % [1]: 98.1%
